The subject of assay [1] is cancer cell lines. The assay can be described thus: Cellular IC50 (GI50) of RON inhibitors with or without Dasatinib in cancer cell lines. The assay is classed as cell-based. As to conditions: all tested cell lines; co-administered with Dasatinib. An excerpt:
FIGS. 12A-12C show additional example data of a small molecule approach to inhibit SRC and RON in cancer cells. As described herein, one approach to validate the CombiGEM results (dual SRC and RON knockout using Cas and DNA constructs) can include using small molecule inhibitors to reduce function of SRC or RON. […] FIG. 12B and FIG. 12C show plots of GI50 as a function of treatment with RON inhibitors Foretinib or a Met/Ron inhibitor, respectively, co-administered with Dasatinib.

In assay [2] the test system is MDA-MB-231 tumor xenografts. The assay can be described thus: MDA-MB-231 tumor xenograft, tumor volume.
Assay [3] concerns the target T1, RON (Homo sapiens, UniProt Q04912). The assay can be described thus: RON inhibition (percent activity vs log concentration).
Text: (§1) The plot indicates percent activity of RON or cMet as a function of the log concentration of the compound (in moles, M). From the plot, the IC50 values may be obtained.
In assay [4] the target is cMet (Homo sapiens, UniProt P08581). The assay can be described thus: cMet inhibition (percent activity vs log concentration).
Chain of cMet (P08581 25-1390): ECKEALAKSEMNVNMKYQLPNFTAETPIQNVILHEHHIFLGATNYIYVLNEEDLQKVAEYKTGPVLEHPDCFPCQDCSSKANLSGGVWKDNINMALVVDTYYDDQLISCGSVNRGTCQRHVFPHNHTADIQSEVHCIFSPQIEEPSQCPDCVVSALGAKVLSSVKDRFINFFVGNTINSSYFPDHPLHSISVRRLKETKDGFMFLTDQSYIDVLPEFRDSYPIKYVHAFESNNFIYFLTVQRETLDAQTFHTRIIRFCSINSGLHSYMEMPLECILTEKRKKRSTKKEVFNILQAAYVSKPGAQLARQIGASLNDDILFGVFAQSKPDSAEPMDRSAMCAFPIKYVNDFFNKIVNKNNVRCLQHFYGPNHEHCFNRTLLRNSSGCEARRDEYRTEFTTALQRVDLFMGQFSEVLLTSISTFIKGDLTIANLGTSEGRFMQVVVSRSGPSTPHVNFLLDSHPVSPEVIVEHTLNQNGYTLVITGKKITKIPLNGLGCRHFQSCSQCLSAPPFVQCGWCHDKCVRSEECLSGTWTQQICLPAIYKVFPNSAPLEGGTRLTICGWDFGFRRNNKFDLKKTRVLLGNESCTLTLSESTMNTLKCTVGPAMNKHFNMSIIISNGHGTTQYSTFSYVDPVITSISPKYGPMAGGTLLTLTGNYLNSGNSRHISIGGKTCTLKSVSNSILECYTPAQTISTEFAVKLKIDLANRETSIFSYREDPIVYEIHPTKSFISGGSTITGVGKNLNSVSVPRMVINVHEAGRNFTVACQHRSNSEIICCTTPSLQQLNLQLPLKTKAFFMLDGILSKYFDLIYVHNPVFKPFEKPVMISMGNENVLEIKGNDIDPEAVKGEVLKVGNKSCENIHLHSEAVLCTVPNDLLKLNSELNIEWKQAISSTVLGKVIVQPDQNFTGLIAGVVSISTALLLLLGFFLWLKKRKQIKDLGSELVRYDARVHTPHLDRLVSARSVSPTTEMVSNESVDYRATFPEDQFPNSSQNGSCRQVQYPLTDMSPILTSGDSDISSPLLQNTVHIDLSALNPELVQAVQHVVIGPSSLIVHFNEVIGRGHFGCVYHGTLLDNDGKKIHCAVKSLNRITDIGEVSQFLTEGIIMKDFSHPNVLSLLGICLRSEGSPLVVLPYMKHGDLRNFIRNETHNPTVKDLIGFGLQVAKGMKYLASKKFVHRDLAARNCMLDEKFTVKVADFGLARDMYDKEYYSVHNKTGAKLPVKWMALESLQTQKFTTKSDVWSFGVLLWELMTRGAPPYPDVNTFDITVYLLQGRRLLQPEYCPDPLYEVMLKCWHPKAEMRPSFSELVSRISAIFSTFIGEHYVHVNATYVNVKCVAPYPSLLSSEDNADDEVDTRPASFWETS
Text: as §1
The subject of assay [5] is 506 cell lines. The assay can be described thus: Sensitivity of 506 cell lines to Dasatinib. The assay is classed as cell-based. As to conditions: FIG. 10. From the text: The bar plot indicates the effect of various SRC inhibitors, YES inhibitors, or dual SRC/YES inhibitors on the sensitivity of the cells to inhibition; along with an inhibitor for an unrelated/control kinase WEE1. Each bar represents a different type of inhibitor, which may inhibit SRC, YES, SRC and YES, or WEE1. Bars 1-2 from the left of the plot indicate cells are most sensitive to inhibition when SRC and YES are both inhibited. Bars 3-6 from the left of the plot indicate sensitivity to inhibition for cells treated with SRC inhibitors. Bar 7 from the left of the plot indicates sensitivity to inhibition for cells treated with WEE1 inhibitor. […] from the left of the plot also indicate sensitivity to inhibition for cells treated with SRC inhibitors. Bar 9 from the left of the plot indicates sensitivity to inhibition for cells treated with YES1 inhibitor. Bar 10 from the left of the plot indicates sensitivity to inhibition for cells treated with WEE1 inhibitor. Increased sensitivity to inhibition is observed in SRC and YES dual inhibition, compared to SRC-only inhibition or YES-only inhibition. In FIG. 10, 506 cell lines are compared for sensitivity to Dasatinib (SRC and YES inhibitor). 119 of the 506 cell lines are more sensitive to Dasatinib than MDA-MB-231 cells. […] Cell lines that are sensitive to Dasatinib are more sensitive to other dual inhibitors of YES and SRC.

The target in assay [6] is T1, RON. The assay can be described thus: RON dissociation constant (Kd). The assay is classed as binding. From the text: The four compounds “ENG-009”, “ENG-015”, “ENG-018”, and“ENG-035” are shown, along with their Ron and cMet inhibitory activities.
Assay [7] relates to MDA-MB-231 cells. The assay can be described thus: MDA-MB-231 cell viability as a function of SU-6656 concentration, with or without Dasatinib co-treatment. The assay is classed as cell-based. Conditions: Homo sapiens, MDA-MB-231, MDA-MB-231, read-out: concentration of SU-6656 at 50% viability. The protocol: An additional approach to validate the CombiGEM results (dual SRC and YES knockout using Cas and DNA constructs) can include using small molecule inhibitors to reduce the function of SRC or YES. […] One group of cells is treated with only the YES inhibitor and the vehicle control (DMSO only). Two groups of cells are co-treated with Dasatinib, a SRC inhibitor, at a concentration of 500 nM or 1 μM. The control group (DMSO only, no Dasatinib) has a 50% viability at a concentration of 68.6 μM of SU-6656, compared to 20.4 μM for the cells co-treated with 500 nM Dasatinib and 12.7 μM for the cells co-treated with 1 μM Dasatinib.

This note sets out measurements from US20220356494A1, “METHODS AND COMPOSITIONS FOR TREATING CANCER” (Engine Biosciences Pte. Ltd., priority 2019, published 2022).

pIC50, pKd: −log10 of the molar value. Read-outs that look alike come from different tables or passages of the source.

T1 sequence (Q04912 25-1400): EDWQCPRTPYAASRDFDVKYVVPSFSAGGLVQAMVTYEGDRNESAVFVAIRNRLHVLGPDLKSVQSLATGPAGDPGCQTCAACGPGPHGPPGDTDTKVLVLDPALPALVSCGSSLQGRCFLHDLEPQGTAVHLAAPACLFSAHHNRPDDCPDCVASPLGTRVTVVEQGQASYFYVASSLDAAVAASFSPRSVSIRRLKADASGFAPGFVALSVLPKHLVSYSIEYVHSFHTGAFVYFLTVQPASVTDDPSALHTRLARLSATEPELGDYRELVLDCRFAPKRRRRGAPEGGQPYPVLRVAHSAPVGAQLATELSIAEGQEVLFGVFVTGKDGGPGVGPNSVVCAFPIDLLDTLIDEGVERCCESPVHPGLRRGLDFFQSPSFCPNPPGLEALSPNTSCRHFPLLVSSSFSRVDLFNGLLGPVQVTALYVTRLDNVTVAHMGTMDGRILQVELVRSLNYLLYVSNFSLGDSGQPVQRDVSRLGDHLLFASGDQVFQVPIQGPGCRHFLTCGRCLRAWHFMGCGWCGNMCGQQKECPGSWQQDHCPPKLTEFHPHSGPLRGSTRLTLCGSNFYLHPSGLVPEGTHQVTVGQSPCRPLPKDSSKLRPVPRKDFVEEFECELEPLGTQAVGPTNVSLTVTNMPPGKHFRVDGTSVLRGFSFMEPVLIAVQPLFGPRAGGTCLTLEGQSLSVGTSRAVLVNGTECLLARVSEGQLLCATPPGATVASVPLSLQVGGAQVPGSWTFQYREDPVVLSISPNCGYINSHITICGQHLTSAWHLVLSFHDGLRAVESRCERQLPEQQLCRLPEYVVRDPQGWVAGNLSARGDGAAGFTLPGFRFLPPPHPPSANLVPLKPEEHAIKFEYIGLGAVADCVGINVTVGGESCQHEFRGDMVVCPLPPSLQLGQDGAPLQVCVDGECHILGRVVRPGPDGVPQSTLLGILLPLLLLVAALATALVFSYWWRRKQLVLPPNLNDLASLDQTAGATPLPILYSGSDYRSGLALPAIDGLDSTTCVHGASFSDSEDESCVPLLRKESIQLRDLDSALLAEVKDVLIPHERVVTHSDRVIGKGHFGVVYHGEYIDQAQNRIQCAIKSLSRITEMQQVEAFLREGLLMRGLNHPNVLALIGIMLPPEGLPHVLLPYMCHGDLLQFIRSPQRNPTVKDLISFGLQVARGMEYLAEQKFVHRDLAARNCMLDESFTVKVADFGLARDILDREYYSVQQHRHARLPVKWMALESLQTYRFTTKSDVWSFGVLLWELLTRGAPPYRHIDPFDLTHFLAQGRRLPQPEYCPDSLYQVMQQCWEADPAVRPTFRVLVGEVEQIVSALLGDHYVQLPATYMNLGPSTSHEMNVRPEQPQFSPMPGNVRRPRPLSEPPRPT

For the molecule `CCOc1ccn(-c2ccc(F)cc2)c(=O)c1C(=O)Nc1ccc(Oc2ccnc(N)c2Cl)c(F)c1` [BMS777607, N-[4-[(2-amino-3-chloro-4-pyridinyl)oxy]-3-fluorophenyl]-4-ethoxy-1-(4-fluorophenyl)-2-oxo-3-pyridinecarboxamide], in assay [1], the “potency (GI50) of RON inhibitor in the presence of Dasatinib vs its absence (DMSO)” value is “potency (lower GI50) is greater for the RON inhibitor in the presence of Dasatinib than in its absence”. Further, the “tumor growth compared to vehicle control” value in assay [2] (RON inhibitor only, BMS777607 20 mpk) is on record as “slightly lower compared to the vehicle control”. For the same molecule, the pIC50 was 8.07 in assay [3] and 8.14 in assay [4]. Also, in assay [3] (ratio), the “selectivity for RON over cMet (cMet IC50/RON IC50)” value (shortened to “selectivity … (cMet IC50/RON IC50)”) was found to be 0.9.

`Cc1nc(Nc2ncc(C(=O)Nc3c(C)cccc3Cl)s2)cc(N2CCN(CCO)CC2)n1.O` [Dasatinib, N-(2-chloro-6-methylphenyl)-2-[[6-[4-(2-hydroxyethyl)-1-piperazinyl]-2-methyl-4-pyrimidinyl]amino]-5-thiazole carboxamide monohydrate]: in assay [5], the “number of the 506 cell lines more sensitive to Dasatinib than MDA-MB-231 cells” value is given as 119. The “tumor growth compared to vehicle control” value in assay [2] (SRC inhibitor only, Dasatinib 10 mpk) is reported as “slightly lower compared to the vehicle control”.

Molecule `Cn1cnc(-c2nc3c(Oc4ccc(NC(=O)c5cnn(-c6ccccc6)c5C(F)(F)F)cc4F)ncnc3s2)c1` [ENG-009, N-(3-fluoro-4-((2-(1-methyl-1H-imidazol-4-yl)thiazolo[5,4-d]pyrimidin-7-yl)oxy)phenyl)-1-phenyl-5-(trifluoromethyl)-1H-pyrazole-4-carboxamide] showed a pIC50 in assay [3] of 6.54 to 6.65. The “cMet inhibition (in words)” value in assay [4] was “inactive”.

As to `CCN1CCN(CCCOc2cc3nccc(Oc4c(F)cc(NC(=O)NN5C(=O)CSC5c5c(F)cccc5F)cc4F)c3cc2OC)CC1` (stereo not shown) [ENG-013, 1-(2-(2,6-difluorophenyl)-4-oxothiazolidin-3-yl)-3-(4-((7-(3-(4-ethylpiperazin-1-yl)propoxy)-6-methoxyquinolin-4-yl)oxy)-3,5-difluorophenyl)urea], in assay [3], the pIC50 was 8.80 and the “selectivity … (cMet IC50/RON IC50)” value is reported as “approximately 10 fold”.

With `Cn1cnc(-c2cc3nccc(Oc4ccc(NC(=O)c5cnn(-c6ccccc6)c5C(F)(F)F)cc4F)c3cn2)c1` [ENG-015, N-(3-fluoro-4-((7-(1-methyl-1H-imidazol-4-yl)-1,6-naphthyridin-4-yl)oxy)phenyl)-1-phenyl-5-(trifluoromethyl)-1H-pyrazole-4-carboxamide], the pIC50 in assay [3] was 8.55; in assay [4], 6.88. For the same molecule, the results for the “selectivity … (cMet IC50/RON IC50)” value in assay [3] and in assay [3] (ratio) were “approximately 50 fold” and above 47, respectively. For the same molecule, the “IC30 for RON” value in assay [3] (printed as IC30) is 2.8 nM.

Turning to `Cn1cnc(-c2ccc3c(Oc4ccc(NC(=O)c5cnn(-c6ccccc6)c5C(F)(F)F)cc4F)n[nH]c3c2)c1` [ENG-018, N-(3-fluoro-4-((6-(1-methyl-1H-imidazol-4-yl)-1H-indazol-3-yl)oxy)phenyl)-1-phenyl-5-(trifluoromethyl)-1H-pyrazole-4-carboxamide], the “RON inhibition (in words)” value in assay [3] is “relatively inactive”. Moreover, in assay [4], the “cMet inhibition (in words)” value is “relatively inactive”.

Turning to `Cn1cnc(-c2nc3nccc(Oc4ccc(NC(=O)c5cnn(-c6ccccc6)c5C(F)(F)F)cc4F)c3s2)c1` [ENG-035, N-(3-fluoro-4-((2-(1-methyl-1H-imidazol-4-yl)thiazolo[4,5-b]pyridin-7-yl)oxy)phenyl)-1-phenyl-5-(trifluoromethyl)-1H-pyrazole-4-carboxamide], the pKd in assay [6] was 7.37. Further, in assay [3], the “selectivity … (cMet IC50/RON IC50)” value was around 2.3 fold.

As for `COc1cc2c(Oc3ccc(NC(=O)C4(C(=O)Nc5ccc(F)cc5)CC4)cc3F)ccnc2cc1OCCCN1CCOCC1` [Foretinib, N1′-[3-fluoro-4-[[6-methoxy-7-(3-morpholinopropoxy)-4-quinolyl]oxy]phenyl]-N1-(4-fluorophenyl)cyclopropane-1,1-dicarboxamide], the “potency (GI50) of RON inhibitor in the presence of Dasatinib vs its absence (DMSO)” value in assay [1] is reported as “potency (lower GI50) is greater for the RON inhibitor in the presence of Dasatinib than in its absence”.

In the case of `CN(C)S(=O)(=O)c1ccc2c(c1)/C(=C/c1cc3c([nH]1)CCCC3)C(=O)N2` [SU-6656, (3Z)-N,N-Dimethyl-2-oxo-3-(4,5,6,7-tetrahydro-1H-indol-2-ylmethylidene)-2,3-dihydro-1H-indole-5-sulfonamide], the pIC50 is 4.16 in assay [7] (DMSO only, no Dasatinib); 4.69 in assay [7] (co-treated with 500 nM Dasatinib); 4.90 in assay [7] (co-treated with 1 μM Dasatinib).

In assay [3], `CC1=C(C#N)C(c2ccc3[nH]nc(OCCOC(C)C)c3c2)C(C#N)=C(C)N1` [tool compound 2, 4-(3-(2-isopropoxyethoxy)-1H-indazol-5-yl)-2,6-dimethyl-1,4-dihydropyridine-3,5-dicarbonitrile] had a pIC50 of 5.07.
